Broadly, the melting point is the temperature of the solid-liquid transition.

This is an account of results in patent publication US10080739B2, “Aryl imidazoles and their use as anti-cancer agents” (Aptose Biosciences Inc., priority 2003, dated 2018).

The conditions of series [1]: NCI/DTP data; cited from earlier work.
For series [2], the system named is Saccharmyces cerevisiae strains that have mutations in genes related to cell cycle control and DNA repair damage. Conditions: panel of six yeast strains, single concentration; NCI/DTP data; cited from earlier work.
In series [3] the test system is human colon carcinoma cells (HT-29). Kind of series: XTT cell proliferation assay, HT-29 cells, 48 h. The series is classed as cell-based. The following applies: read-out: % Survival. The protocol:
(§1) Selected compounds of Formula I were tested for anti-cancer activity in vitro using a human colon carcinoma cells (HT-29) and human non-small cell lung cancer cells (H460). The cells were maintained in α-MEM medium (Wisent, St-Bruno, Qc) supplemented with 10% FBS, and grown at 37° C. in an atmosphere of 5% CO2. Cells were transferred onto 150 mm tissue culture plates and grown until sub-confluency (70-80%) prior to their use.
(§2) The anti-cancer activity in vitro was evaluated by a cell proliferation assay based on the ability of live cells to reduce the tetrazolium salt XTT to orange coloured compounds of formazan (XTT cell proliferation kit II, Roche Applied Science, Montreal, QC).
(§3) Approximately 4×10^3 colon cancer cells (HT-29) or 2×10^3 non-small cell lung cancer cells (NCI-H460) in 100 μl of complete culture medium were plated onto 96-well microtiter plates and incubated overnight at 37° C. The medium was then removed by inverting the plate and patting on a sterile absorbent cloth. Fifty μl of medium containing the test compound at either 25 or 100 μM, were added to the wells containing cells and incubated at 37° C. in an atmosphere of 5% CO2 for 48 h. Following incubation, 25 μl of an XTT reaction mixture (XTT at a final concentration of 0.3 mg/ml) were added to each well and the plates were incubated for a further 4 h. The absorbance of each sample was then determined at a wavelength of 490 nm/650 nm as reference. Each compound was tested in duplicate and the results are reported as averages.
On the technique in general: Formazan colour is commonly taken as a measure of viable cells.

Series [4] concerns human non-small cell lung cancer cells (H460). The experiment in a line: XTT cell proliferation assay, H460 cells, 48 h. Type of series: cell-based. The following applies: NCI-H460 cells, 48 h, XTT, read-out: % Survival. As for the experimental part: as §1, §2, §3
Series [5] concerns HT29 colon adenocarcinoma cells. The experiment in a line: morphological changes (vacuoles), HT29. Type of series: cell-based, human. Conditions: treatment for 24 hours. The source says: These vacuoles are not formed in DMSO- or doxorubicin-treated cells. Moreover, the nuclear membrane is no longer evident in the phase-contrast images of cells treated with compound 45, even though the nucleus is still intact, as shown by DAPI staining.

In series [6] the test system is panel of 60 human cancer cell lines. Kind of series: NCI/DTP in vitro anticancer screen, 60 cell lines. Type of series: cell-based. Conditions: NCI panel of 60 human cancer cell lines, value per compound (FIG. 10A). As for the experimental part: The twenty-three compounds of Formula I shown below were evaluated for their antiproliferative effects in a panel of 60 human cancer cell lines as part of the in vitro anticancer screening services provided by the DTP (Developmental Therapeutics Program) of the US National Cancer Institute (NCI) U.S. National Cancer Institute (NCI) of the National Institutes of Health (NIH) in […], Md.
The NCI conducts a standard 48/72 hour 60 cell line assay and an in vitro time course assay as described in Alley et al. (Cancer Res (1988) 48:589). In the standard 60 cell line assay, a minimum of 5 concentrations of the test compound are tested at 10-fold dilutions against 60 cell lines and cell growth is assayed at 48 and 72 hours using a sulphorhodamine B assay. For the time course analysis, tumour cells are treated with the test compound at various time points, then washed and grown in medium free of the test compound until the end of the experiment at 144 hrs. This assay employs 20% FBS to better approximate the minimum c×t (concentrations and times) test compound exposure conditions that are required to achieve activity in vivo. Cell growth is quantified by an MTT assay (similar to the XTT assay described above) and the concentration of the test compound required for growth inhibition is determined. […]

As for `Cc1ccccc1-c1nc2c3ccccc3c3ccccc3c2[nH]1` [NCI #338970], the “activity in the In Vivo Anticancer Drug Screen” value in series [1] was “None of these three compounds showed any activity”. Also, the “activity in Stage0 testing in the Yeast Anticancer Drug Screen” value in series [2] is reported as “active”.

For `Cc1[nH]c2ccccc2c1-c1nc(-c2ccc(Cl)cc2)c(-c2ccc(Cl)cc2)[nH]1` [Compound 19], the melting point was 165 to 167 °C. For the same compound, in series [3] (25 μM compound), the viability at 25 µM came out at 106%. For the same compound, the viability at 100 µM in series [3] (100 μM compound) worked out at 37.1%. In series [4] (25 μM compound), the viability at 25 µM stood at 89.2%. The viability at 100 µM in series [4] (100 μM compound) was determined as 27.3%.

On to `COc1cccc2c1C(=O)c1c(O)c3c(c(O)c1C2=O)C[C@@](O)(C(=O)CO)C[C@@H]3O[C@H]1C[C@H](N)[C@H](O)[C@H](C)O1` [doxorubicin, reference compound], for which the formation of vacuoles result in series [5] was “not formed”.

The compound `Oc1ccc(-c2[nH]c(-c3c[nH]c4ccc(Br)cc34)nc2-c2ccccc2)cc1O` [Compound 140] displayed a melting point of 210 to 215 °C.

With `CN(C)c1ccc(-c2nc3c4ccccc4c4ccccc4c3[nH]2)cc1` [NCI #322334], in series [1], the “activity in the In Vivo Anticancer Drug Screen” value was “None of these three compounds showed any activity”.

On to `c1ccc2c(-c3nc4ccccc4[nH]3)cccc2c1` [Compound 144033], for which the “activity in the In Vivo Anticancer Drug Screen” value in series [1] was “None of these three compounds showed any activity”.

For the compound `Brc1ccc2[nH]cc(C=Nc3ccc4c5ccccc5c5nc(-c6c[nH]c7ccc(Br)cc67)[nH]c5c4c3)c2c1`, the melting point was in the range of 236 to 237 °C.

Turning to `Brc1ccc2[nH]cc(-c3nc(-c4cccc5ccccc45)c(-c4ccccc4)[nH]3)c2c1` [Compound 181], the melting point is 308 to 310 °C.

The compound `COc1ccc(-c2nc(-c3c[nH]c4ccc(Br)cc34)[nH]c2-c2ccccc2)cc1OC` [Compound 96] yielded a melting point of 265 to 266 °C.

`Cc1[nH]c2ccccc2c1-c1nc2c3ccccc3c3ccc([N+](=O)[O-])cc3c2[nH]1` had a melting point of 335 to 336 °C.

On to `Cc1[nH]c2ccccc2c1-c1nc2c3cccnc3c3ncccc3c2[nH]1` [Compound 90], for which, in series [6], the “GI50 (growth inhibition by 50%)” value was “most effective compound”.

In the case of `c1ccc(-c2[nH]c3ccccc3c2-c2nc3c4ccccc4c4ccccc4c3[nH]2)cc1`, the melting point is 240 to 242 °C.
